Test results taken from patent US4264736A, “Antibiotic 890A10” (Merck & Co., Inc., priority 1979, dated 1981).

Key:
[1] = tested on: Vibrio percolans MB No. 2566 (res. ceph C); assay: Antibiotic spectrum profile, agar zone of inhibition; type: cell-based; conditions: Comamonas terrigena, read-out: Inhib. Zone Diam.
[2] = tested on: Vibrio percolans ATCC 8461; assay: Antibiotic spectrum profile, agar zone of inhibition, with penicillinase; type: cell-based; conditions: Comamonas terrigena, ATCC8461; 0.015 ml of 9.5 μg/ml aqueous solution; 25° C.; Vibrio Percolans ATCC 8461 + 2×10^5 u/ml penicillinase; read-out: Inhib. Zone Diam.
[3] = tested on: Pseudomonas stutzeri ATCC 11607; assay: Antibiotic spectrum profile, agar zone of inhibition; type: cell-based; conditions: Stutzerimonas stutzeri, ATCC11607, 0.015 ml of 9.5 μg/ml aqueous solution, 25° C., read-out: Inhib. Zone Diam.
[4] = tested on: Erwinia atroseptica ATCC 4446; assay: as above; type: cell-based; conditions: Pectobacterium atrosepticum, ATCC4446, 0.015 ml of 9.5 μg/ml aqueous solution, 25° C., read-out: Inhib. Zone Diam.
[5] = tested on: Streptococcus faecium MB No. 2820; assay: as above; type: cell-based; conditions: Enterococcus faecium, MBNO.2820, 0.015 ml of 9.5 μg/ml aqueous solution, 25° C., read-out: Inhib. Zone Diam.
[6] = Stability in aqueous solution under acidic conditions; type: physicochemical; conditions: free acid form not isolated
[7] = tested on: Streptococcus faecalis MB No. 753; assay: Antibiotic spectrum profile, agar zone of inhibition; type: cell-based; conditions: Enterococcus faecalis, MBNO.753, 0.015 ml of 9.5 μg/ml aqueous solution, 25° C., read-out: Inhib. Zone Diam.
[8] = tested on: Vibrio percolans ATCC 8461; assay: Bioassay, agar plate disc-diffusion, 890A1 standard; type: cell-based; conditions: measured against standard of antibiotic 890A1 (defined as 250 units per HAEA300 unit)
Procedure: An agar plate disc-diffusion method is employed using Vibrio percolans ATCC 8461 as tester organism. A purified sample of antibiotic 890A1 is used as standard. Antibiotic 890A1 is prepared according to the procedure set forth in Example 6.
Plates containing Vibrio percolans ATCC 8461 are prepared as follows:
A lyophilized culture of Vibrio percolans ATCC 8461 is suspended in 15 ml. of a sterilized medium containing 8 g./liter of Difco Nutrient Broth and 2 g./liter of yeast extract in distilled water "nutrient broth-yeast extract" (herein after designated NBYE). The culture is incubated overnight on a rotary shaker at 28° C. This culture is used to inoculate the surface of slants containing 1.5% agar in NBYE, and the inoculated slants are incubated overnight at 28° C., and then stored in a refrigerator. […]
Filter paper discs of one-half inch diameter are dipped into the solution to be assayed, and are placed on the agar. […] The diameter of the zone of inhibition is measured after appropriate incubation (12-14 hours at 25° C.). […]
Calculations of potencies proceed as follows: a slope is determined by measuring the zone diameters of a solution of antibiotic 890A10 and of a fourfold dilution (in KPB) of this solution. Two discs of each concentration are assayed on a single plate, and the average zone size at each concentration is determined. […] Potencies are then calculated by the formula: [formula] […]

[9] = tested on: Klebsiella pneumoniae MB No. 1264; assay: Antibiotic spectrum profile, agar zone of inhibition; type: cell-based; conditions: MBNO.1264, 0.015 ml of 9.5 μg/ml aqueous solution, 25° C., read-out: Inhib. Zone Diam.

CC(=O)NCCSC1=C(C(=O)O)N2C(=O)C(C(C)OS(=O)(=O)O)C2C1 (stereo not drawn) [Antibiotic 890A10]
zone of inhibition at 9.5 µg/mL [1]: 22 mm | zone of inhibition at 9.5 µg/mL [2]: 25 mm | zone of inhibition at 9.5 µg/mL [3]: 0 mm | zone of inhibition at 9.5 µg/mL [4]: 10 mm | zone of inhibition at 9.5 µg/mL [5]: 0 mm | stability under acidic conditions in aqueous solution [6]: unstable | zone of inhibition at 9.5 µg/mL [7]: 0 mm | bioassay units per HAEA300 unit [8]: 174 bioassay units per HAEA300 unit | zone of inhibition at 9.5 µg/mL [9]: 19 mm
